Measured values as given in patent US20240270695A1, “COMPOUNDS, COMPOSITIONS AND METHODS OF TREATING DISORDERS” (Chengdu Anticancer Bioscience LTD, priority 2021, published 2024).

Columns and labels:
[1] = test system: RPE-Neo or RPE-MYC or RPE-MYC expressing an EGFP-Histone 2B fusion protein; experiment: MTT assays of cellular proliferation; type: cell-based; conditions: Homo sapiens, min. effective conc., read-out: Proliferative arrest (<50%)
[2] = test system: RPE-Neo or RPE-MYC or RPE-MYC expressing an EGFP-Histone 2B fusion protein; experiment: Phenotypic screening assay (arrest in mitosis, change in DNA content, cell death; GE IN-Cell Analyzer 2000); type: cell-based; conditions: Homo sapiens, compounds 20 nM to 20 μM, 24, 48 or 72 hours
[3] = read-out: Min. Effective conc. for Polyploidy (≥10%)
[4] = min. effective conc., read-out: Cell Death (>30%)
[5] = min. effective conc., read-out: Mitotic Arrest (≥10%)

COC(=O)C1=C(O)c2ccccc2N(Cc2cccc(F)c2)C(=O)C1 [Example 8, Methyl 1-(3-fluorobenzyl)-5-hydroxy-2-oxo-2,3-dihydro-1H-benzo[b]azepine-4-carboxylate] showed a minimal effective concentration [1] of 30 to 1000 µM.
Work on COC(=O)C1=C(O)c2ccccc2N(Cc2cc(OC)cc(OC)c2)C(=O)C1 [Example 11, Methyl 1-(3,5-dimethoxybenzyl)-5-hydroxy-2-oxo-2,3-dihydro-1H-benzo[b]azepine-4-carboxylate] yielded a minimal effective concentration [1] of 30 to 1000 µM.
Work on COC(=O)C1=C(O)c2ccccc2N(Cc2ccc(C#N)cc2)C(=O)C1 [Example 26, Methyl 1-(4-cyanobenzyl)-5-hydroxy-2-oxo-2,3-dihydro-1H-benzo[b]azepine-4-carboxylate] yielded a minimal effective concentration [1] of 30 to 1000 µM.
Work on COC(=O)C1=C(O)c2ccccc2N(Cc2ccc(OC(F)(F)F)cc2)C(=O)C1 [Example 32, Methyl 5-hydroxy-2-oxo-1-(4-(trifluoromethoxy)benzyl)-2,3-dihydro-1H-benzo[b]azepine-4-carboxylate] yielded a minimal effective concentration [1] of 30 to 1000 µM.
COC(=O)C1=C(O)c2ccccc2N(Cc2cccc3ccccc23)C(=O)C1 [Example 38, Methyl 5-hydroxy-1-(naphthalen-1-ylmethyl)-2-oxo-2,3-dihydro-1H-benzo[b]azepine-4-carboxylate] was tested, and the minimal effective concentration [2, 3] was 30 to 1000 µM, the minimal effective concentration [2, 4] was 30 to 1000 µM and the minimal effective concentration [2, 5] was 30 to 1000 µM. For the same compound, the minimal effective concentration [1] was 30 to 1000 µM.
COC(=O)Cc1ccc(CN2C(=O)CC(C(=O)OC)=C(O)c3ccccc32)cc1 [Example 42, Methyl 5-hydroxy-1-(4-(2-methoxy-2-oxoethyl)benzyl)-2-oxo-2,3-dihydro-1H-benzo[b]azepine-4-carboxylate] was tested, and the minimal effective concentration [1] was 30 to 1000 µM.
Cc1ccc(CN2C(=O)CC(C(=O)NC3CCCCC3)=C(O)c3ccccc32)cc1F [Example 66, N-cyclohexyl-1-(3-fluoro-4-methylbenzyl)-5-hydroxy-2-oxo-2,3-dihydro-1H-benzo[b]azepine-4-carboxamide] was tested, and the minimal effective concentration [2, 3] was 10 to 30 µM, the minimal effective concentration [2, 4] was 10 to 30 µM and the minimal effective concentration [2, 5] was 10 to 30 µM.
With CNC(=S)C1=C(O)c2ccccc2N(Cc2ccc(C)c(F)c2)C(=O)C1 [Example 67, 1-(3-fluoro-4-methylbenzyl)-5-hydroxy-N-methyl-2-oxo-2,3-dihydro-1H-benzo[b]azepine-4-carbothioamide] the minimal effective concentration [2, 3] was 10 to 30 µM, the minimal effective concentration [2, 4] was 10 to 30 µM and the minimal effective concentration [2, 5] was 10 to 30 µM.
Cc1ccc(CN2C(=O)CC(C(=O)C(F)(F)F)=C(O)c3ccccc32)cc1F [Example 68, 1-(3-fluoro-4-methylbenzyl)-5-hydroxy-4-(2,2,2-trifluoroacetyl)-1,3-dihydro-2H-benzo[b]azepin-2-one] showed a minimal effective concentration [2, 3] of 10 to 30 µM, a minimal effective concentration [2, 4] of 10 to 30 µM and a minimal effective concentration [2, 5] of 10 to 30 µM.
Compound CNC(=O)C1=C(O)c2ccccc2N(CC2CC2)C(=O)C1 [Example 70, 1-(cyclopropylmethyl)-5-hydroxy-N-methyl-2-oxo-2,3-dihydro-1H-benzo[b]azepine-4-carboxamide] has a minimal effective concentration [2, 3] of 30 to 1000 µM, a minimal effective concentration [2, 4] of 30 to 1000 µM and a minimal effective concentration [2, 5] of 30 to 1000 µM. It also gave a minimal effective concentration [1] of 30 to 1000 µM.
CNC(=O)C1=C(O)c2ccccc2N(Cc2ccsc2)C(=O)C1 [Example 71, 5-hydroxy-N-methyl-2-oxo-1-(thiophen-3-ylmethyl)-2,3-dihydro-1H-benzo[b]azepine-4-carboxamide] was tested, and the minimal effective concentration [2, 3] was 30 to 1000 µM, the minimal effective concentration [2, 4] was 30 to 1000 µM and the minimal effective concentration [2, 5] was 30 to 1000 µM. It also gave a minimal effective concentration [1] of 30 to 1000 µM.
CNC(=O)C1=C(O)c2ccccc2N(Cc2ccccc2)C(=O)C1 [Example 72, 1-benzyl-5-hydroxy-N-methyl-2-oxo-2,3-dihydro-1H-benzo[b]azepine-4-carboxamide] showed a minimal effective concentration [2, 3] of 30 to 1000 µM, a minimal effective concentration [2, 5] of 30 to 1000 µM and a minimal effective concentration [1] of 30 to 1000 µM.
Work on CNC(=O)C1=C(O)c2ccccc2N(Cc2ccncc2)C(=O)C1 [Example 74, 5-hydroxy-N-methyl-2-oxo-1-(pyridin-4-ylmethyl)-2,3-dihydro-1H-benzo[b]azepine-4-carboxamide] yielded a minimal effective concentration [2, 3] of 30 to 1000 µM, a minimal effective concentration [2, 4] of 30 to 1000 µM and a minimal effective concentration [2, 5] of 30 to 1000 µM. The minimal effective concentration [1] was 30 to 1000 µM.
CNC(=O)C1=C(O)c2ccccc2N(Cc2cccnc2)C(=O)C1 [Example 75, 5-hydroxy-N-methyl-2-oxo-1-(pyridin-3-ylmethyl)-2,3-dihydro-1H-benzo[b]azepine-4-carboxamide] gave a minimal effective concentration [2, 3] of 30 to 1000 µM, a minimal effective concentration [2, 4] of 30 to 1000 µM and a minimal effective concentration [2, 5] of 30 to 1000 µM. It also gave a minimal effective concentration [1] of 30 to 1000 µM.
CNC(=O)C1=C(O)c2ccccc2N(Cc2ccc(F)cc2)C(=O)C1 [Example 76, 1-(4-fluorobenzyl)-5-hydroxy-N-methyl-2-oxo-2,3-dihydro-1H-benzo[b]azepine-4-carboxamide] was tested, and the minimal effective concentration [2, 3] was 1 to 10 µM, the minimal effective concentration [2, 4] was 1 to 10 µM and the minimal effective concentration [2, 5] was 1 to 10 µM. For the same compound, the minimal effective concentration [1] was 1 to 10 µM.
CNC(=O)C1=C(O)c2ccccc2N(Cc2cccc(F)c2)C(=O)C1 [Example 77, 1-(3-fluorobenzyl)-5-hydroxy-N-methyl-2-oxo-2,3-dihydro-1H-benzo[b]azepine-4-carboxamide] was tested, and the minimal effective concentration [2, 3] was 30 to 1000 µM, the minimal effective concentration [2, 4] was 30 to 1000 µM and the minimal effective concentration [2, 5] was 30 to 1000 µM. For the same compound, the minimal effective concentration [1] was 30 to 1000 µM.
CNC(=O)C1=C(O)c2ccccc2N(Cc2ccccc2F)C(=O)C1 [Example 78, 1-(2-fluorobenzyl)-5-hydroxy-N-methyl-2-oxo-2,3-dihydro-1H-benzo[b]azepine-4-carboxamide] showed a minimal effective concentration [2, 3] of 10 to 30 µM, a minimal effective concentration [2, 4] of 10 to 30 µM and a minimal effective concentration [2, 5] of 10 to 30 µM. For the same compound, the minimal effective concentration [1] was 10 to 30 µM.
For CNC(=O)C1=C(O)c2ccccc2N(Cc2ccc(C)cc2)C(=O)C1 [Example 79, 5-hydroxy-N-methyl-1-(4-methylbenzyl)-2-oxo-2,3-dihydro-1H-benzo[b]azepine-4-carboxamide], the minimal effective concentration [2, 3] was 1 to 10 µM, the minimal effective concentration [2, 4] was 1 to 10 µM and the minimal effective concentration [2, 5] was 1 to 10 µM. It also gave a minimal effective concentration [1] of 1 to 10 µM.
CNC(=O)C1=C(O)c2ccccc2N(Cc2cccc(C)c2)C(=O)C1 [Example 80, 5-hydroxy-N-methyl-1-(3-methylbenzyl)-2-oxo-2,3-dihydro-1H-benzo[b]azepine-4-carboxamide] was tested, and the minimal effective concentration [2, 3] was 1 to 10 µM, the minimal effective concentration [2, 4] was 1 to 10 µM and the minimal effective concentration [2, 5] was 1 to 10 µM. For the same compound, the minimal effective concentration [1] was 1 to 10 µM.
Work on CNC(=O)C1=C(O)c2ccccc2N(Cc2ccccc2C)C(=O)C1 [Example 81, 5-hydroxy-N-methyl-1-(2-methylbenzyl)-2-oxo-2,3-dihydro-1H-benzo[b]azepine-4-carboxamide] yielded a minimal effective concentration [2, 3] of 30 to 1000 µM, a minimal effective concentration [2, 4] of 30 to 1000 µM and a minimal effective concentration [2, 5] of 30 to 1000 µM. The minimal effective concentration [1] was 30 to 1000 µM.
In the case of CC(c1ccc(F)cc1)N1C(=O)CCC(=O)c2ccccc21 (stereo not drawn) [Example 82, 1-(1-(4-fluorophenyl)ethyl)-3,4-dihydro-1H-benzo[b]azepine-2,5-dione], the minimal effective concentration [2, 3] is reported as 30 to 1000 µM, the minimal effective concentration [2, 4] is reported as 30 to 1000 µM and the minimal effective concentration [2, 5] is reported as 30 to 1000 µM. It also gave a minimal effective concentration [1] of 30 to 1000 µM.
CNC(=O)C1=C(O)c2ccccc2N(Cc2ccc(Cl)cc2)C(=O)C1 [Example 83, 1-(4-chlorobenzyl)-5-hydroxy-N-methyl-2-oxo-2,3-dihydro-1H-benzo[b]azepine-4-carboxamide] showed a minimal effective concentration [2, 3] of 10 to 30 µM, a minimal effective concentration [2, 4] of 10 to 30 µM and a minimal effective concentration [2, 5] of 10 to 30 µM. The minimal effective concentration [1] was 10 to 30 µM.
